Data as given in PMC6054517, “Design and synthesis of novel oridonin analogues as potent anticancer agents” (Journal of Enzyme Inhibition and Medicinal Chemistry, 2018).
Where two headings read alike, the source gives them in different places.

Key:
AGS = assay: MTT antiproliferative assay, AGS cells; format: cell-based, human; conditions: for IC50: MTT, 48 h, means ± SD, n = 3
Excerpt: (§1) Human gastric cancer (AGS), human differentiation of advanced gastric cancer (MGC803), human colorectal cancer (HCT116), human lung cancer (A549), human hepatocellular carcinoma (Bel7402) and human cervical cancer (HeLa) cell lines were obtained from the State Key Laboratory of Natural Resources and Functional Molecules of the Changbai Mountain (Yanbian University) and maintained in Dulbecco’s modified Eagle’s medium and RPMI Media 1640 (RPMI1640), supplemented with 10% foetal bovine serum 100 IU/ml penicillin, […] and 2 mmol/l L-glutamine (Sigma) at 37 °7 in a humidified atmosphere containing 5% CO2.
(§2) All six human cancer cell lines and normal L02 cells were seeded in 96-well plates at the appropriate densities to ensure exponential growth throughout the experimental period (9 × 10^3 cells per well) and then allowed to adhere for 24 h. The cells were then treated for 48 h with four serial dilutions (100, 50, 10, and 1 µM) of each compound. 5-Fluorouracil (5-FU) was used as the positive control. After incubation for 48 h, 10 µl MTT solution was added to each well to give a final concentration of 2 mg ml^−1. The plates were then incubated for further 4 h. After incubation, the MTT solution was removed and 150 µl DMSO was added to each well to solubilise the formed product. To ensure complete solubilisation, the plates were shaken vigorously for 10 min at room temperature. The optometric density (OD) was read on a microplate reader (ELx800, BioTek, Highland Park, Winooski, VT) at a wavelength of 492 nm and the data were subsequently analysed. The percentage of cell growth inhibition was calculated from the following equation: inhibitory rate (%) = [1–(ODtreated–ODblank)/(ODcontrol–ODblank)] × 100.
(§3) The MTT assay was performed using a standard protocol.

[1] = test system: AGS, MGC803, Bel7402, HCT116, A549, and HeLa; assay: MTT assay, overall statement on six tumour cell lines; format: cell-based, human; conditions: six cancer cell lines
Excerpt: as §1, §2, §3

MGC803 = assay: MTT antiproliferative assay, MGC803 cells; format: cell-based, human; conditions: for IC50: MTT, 48 h, means ± SD, n = 3
Excerpt: as §1, §2, §3

Hela = assay: MTT antiproliferative assay, HeLa cells; format: cell-based, human; conditions: MTT, 48 h, means ± SD, n = 3
Excerpt: as §1, §2, §3

A549 = assay: MTT antiproliferative assay, A549 cells; format: cell-based, human; conditions: for IC50: MTT, 48 h, means ± SD, n = 3
Excerpt: as §1, §2, §3

L02 = assay: MTT assay on normal cell line L02; format: cell-based; conditions: normal human liver cell line L02, MTT, 48 h
Description: as §2, with “5-Fluorouracil (5-FU) was used as the positive control.” left out
Lack of selective cytotoxicity is the main factor that restricts the dose of most conventional chemotherapeutic agents. […] Selectivity indexes between cancer cells and L-02 cells were calculated.

HCT116 = assay: MTT antiproliferative assay, HCT116 cells; format: cell-based, human; conditions: for IC50: MTT, 48 h, means ± SD, n = 3
Excerpt: as §1, §2, §3

Bel7402 = assay: MTT antiproliferative assay, Bel7402 cells; format: cell-based, human; conditions: for IC50: MTT, 48 h, means ± SD, n = 3
Excerpt: as §1, §2, §3

A549 cells = conditions: cited from earlier work

With `COc1ccc(C=C2C(=O)C34C(O)C2CCC3C23COC4(O)C(O)C2C(C)(C)CCC3O)c(OC)c1` [Compound 2l, (1S,4aR,5S,6S,6aR,9S,11aS,14R,E)-8-(2,4-dimethoxybenzylidene)-1,5,6,14-tetrahydroxy-4,4-dimethyldecahydro-1H-6,11b-(epoxymethano)-6a,9-methanocyclohe-pta[a]naphthalen-7(8H)-one] the “Selectivity index AGS” value (AGS; IC50 on normal cells (L02)/IC50 on tumour cells (AGS)) was 1.22, the IC50 (AGS) was 5.85 ± 1.55 µM and the “antiproliferative activities against the six tumour cell lines (in words)” value (“antiproliferative activities” below) [1] was “more potent antiproliferative activities in vitro than oridonin”. For the same compound, the IC50 (MGC803; Homo sapiens, MGC-803) was 3.49 ± 0.44 µM, the “Selectivity index MGC803” value (MGC803; IC50 on normal cells (L02)/IC50 on tumour cells (MGC803)) was 2.05 and the IC50 (Hela; Homo sapiens, HeLa) was 14.3 ± 2.04 µM. The IC50 (A549; Homo sapiens, A549) was 5.12 ± 0.49 µM, the “Selectivity index A549” value (A549; IC50 on normal cells (L02)/IC50 on tumour cells (A549)) was 1.40 and the IC50 (L02) was 7.15 ± 1.36 µM. The IC50 (HCT116; Homo sapiens, HCT-116, 48 h) was 2.28 ± 0.54 µM, the “Selectivity index HCT116” value (HCT116; IC50 on normal cells (L02)/IC50 on tumour cells (HCT116)) was 3.14 and the IC50 (Bel7402; Homo sapiens, Bel-7402) was 2.41 ± 0.37 µM. The “Selectivity index Bel7402” value (Bel7402; IC50 on normal cells (L02)/IC50 on tumour cells (Bel7402)) was 2.97.
In the case of `CC1(C)CC[C@H](O)C23CO[C@](O)([C@@H](O)[C@H]12)[C@]12C(=O)/C(=C/c4ccc(N)cc4)[C@H](CC[C@@H]31)[C@H]2O` [Compound 2s, (1S,4aR,5S,6S,6aR,9S,11aS,14R,E)-8-(4-aminobenzylidene)-1,5,6,14-tetrahydroxy-4,4-dimethyldecahydro-1H-6,11b-(epoxymethano)-6a,9-methanocyclohepta[a]-naphthalen-7(8H)-one], the IC50 (AGS; Homo sapiens, AGS) is reported as 51 ± 3.34 µM, the “antiproliferative activities” value [1] is reported as “poor antiproliferative activities” and the IC50 (MGC803; Homo sapiens, MGC-803) is reported as 53.2 ± 4.05 µM. The IC50 (Hela; Homo sapiens, HeLa) was over 100 µM, the IC50 (A549; Homo sapiens, A549) was 99.8 ± 7.45 µM and the IC50 (HCT116; Homo sapiens, HCT-116, 48 h) was 10 ± 1.13 µM. It also gave an IC50 (Bel7402; Homo sapiens, Bel-7402) of 7 ± 1.05 µM.
In the case of `CC(=O)Nc1ccc(/C=C2/C(=O)[C@]34[C@H](O)[C@H]2CC[C@H]3C23CO[C@]4(O)[C@@H](O)[C@@H]2C(C)(C)CC[C@@H]3O)cc1` [Compound 2t, N-(4-((E)-((1S,4aR,5S,6S,6aR,9S,11aS,14R)-1,5,6,14-tetrahydroxy-4,4-dimethyl-7-oxodecahydro-1H-6,11b-(epoxymethano)-6a,9-methanocyclohepta[a]naphthalen-8(7H)-ylidene)methyl)phenyl)acetamide], the IC50 (AGS; Homo sapiens, AGS) is reported as 22.1 ± 1.04 µM, the “antiproliferative activities” value [1] is reported as “poor antiproliferative activities” and the IC50 (MGC803; Homo sapiens, MGC-803) is reported as 10 ± 0.84 µM. For the same compound, the IC50 (Hela; Homo sapiens, HeLa) was over 100 µM, the IC50 (A549; Homo sapiens, A549) was 97.1 ± 5.93 µM and the IC50 (HCT116; Homo sapiens, HCT-116, 48 h) was 47.9 ± 3.91 µM. The IC50 (Bel7402; Homo sapiens, Bel-7402) was 14.6 ± 1.66 µM.
For `CC1(C)CC[C@H](O)C23CO[C@](O)([C@@H](O)[C@H]12)[C@]12C(=O)/C(=C/c4ccc(NC(=O)c5ccccc5)cc4)[C@H](CC[C@@H]31)[C@H]2O` [Compound 2u, N-(4-((E)-((1S,4aR,5S,6S,6aR,9S,11aS,14R)-1,5,6,14-tetrahydroxy-4,4-dimethyl-7-oxodecahydro-1H-6,11b-(epoxymethano)-6a,9-methanocyclohepta[a]naphthalen-8(7H)-ylidene)methyl)phenyl)benzamide], the IC50 (AGS; Homo sapiens, AGS) was 12 ± 1.99 µM, the IC50 (MGC803; Homo sapiens, MGC-803) was 12.2 ± 0.94 µM and the IC50 (Hela; Homo sapiens, HeLa) was 9.79 ± 1.08 µM. It also gave an IC50 (A549; Homo sapiens, A549) of 21.5 ± 1.88 µM, an IC50 (HCT116; Homo sapiens, HCT-116, 48 h) of 4.02 ± 0.33 µM and an IC50 (Bel7402; Homo sapiens, Bel-7402) of 7.35 ± 1.28 µM.
With `CC1(C)CC[C@H](O)C23CO[C@](O)([C@@H](O)[C@H]12)[C@]12C(=O)/C(=C/c4ccccc4O)[C@H](CC[C@@H]31)[C@H]2O` [Compound 2v, (1S,4aR,5S,6S,6aR,9S,11aS,14R,E)-1,5,6,14-tetrahydroxy-8-(2-hydroxybenzylidene)-4,4-dimethyldecahydro-1H-6,11b-(epoxymethano)-6a,9-methanocyclohepta[a]naphthalen-7(8H)-one] the IC50 (AGS; Homo sapiens, AGS) was 30.3 ± 2.24 µM, the “antiproliferative activities” value [1] was “poor antiproliferative activities” and the IC50 (MGC803; Homo sapiens, MGC-803) was 32.9 ± 2.31 µM. It also gave an IC50 (Hela; Homo sapiens, HeLa) of over 100 µM, an IC50 (A549; Homo sapiens, A549) of over 100 µM and an IC50 (HCT116; Homo sapiens, HCT-116, 48 h) of 28.2 ± 2.67 µM. For the same compound, the IC50 (Bel7402; Homo sapiens, Bel-7402) was 60.3 ± 4.14 µM.
For `CC1(C)CC[C@H](O)C23CO[C@](O)([C@@H](O)[C@H]12)[C@]12C(=O)/C(=C/c4cccc(O)c4)[C@H](CC[C@@H]31)[C@H]2O` [Compound 2w, (1S,4aR,5S,6S,6aR,9S,11aS,14R,E)-1,5,6,14-tetrahydroxy-8-(3-hydroxybenzylidene)-4,4-dimethyldecahydro-1H-6,11b-(epoxymethano)-6a,9-methanocyclohepta[a]naphthalen-7(8H)-one], the IC50 (AGS; Homo sapiens, AGS) was over 100 µM, the “antiproliferative activities” value [1] was “poor antiproliferative activities” and the IC50 (MGC803; Homo sapiens, MGC-803) was over 100 µM. The IC50 (Hela; Homo sapiens, HeLa) was over 100 µM, the IC50 (A549; Homo sapiens, A549) was over 100 µM and the IC50 (HCT116; Homo sapiens, HCT-116, 48 h) was 22.1 ± 3.28 µM. The IC50 (Bel7402; Homo sapiens, Bel-7402) was over 100 µM.
In the case of `CC1(C)CC[C@H](O)C23CO[C@](O)([C@@H](O)[C@H]12)[C@]12C(=O)/C(=C/c4ccc(O)cc4)[C@H](CC[C@@H]31)[C@H]2O` [Compound 2x, (1S,4aR,5S,6S,6aR,9S,11aS,14R,E)-1,5,6,14-tetrahydroxy-8-(4-hydroxybenzylidene)-4,4-dimethyldecahydro-1H-6,11b-(epoxymethano)-6a,9-methanocyclohepta[a]naphthalen-7(8H)-one], the IC50 (AGS; Homo sapiens, AGS) is reported as over 100 µM, the “antiproliferative activities” value [1] is reported as “poor antiproliferative activities” and the IC50 (MGC803; Homo sapiens, MGC-803) is reported as over 100 µM. For the same compound, the IC50 (Hela; Homo sapiens, HeLa) was over 100 µM, the IC50 (A549; Homo sapiens, A549) was over 100 µM and the IC50 (HCT116; Homo sapiens, HCT-116, 48 h) was 30.1 ± 3.57 µM. For the same compound, the IC50 (Bel7402; Homo sapiens, Bel-7402) was over 100 µM.
With `CC1(C)CCC(O)C23COC(O)(C(O)C12)C12C(=O)C(=Cc4ccc5ccccc5c4)C(CCC31)C2O` [Compound 2y, (1S,4aR,5S,6S,6aR,9S,11aS,14R,E)-1,5,6,14-tetrahydroxy-4,4-dimethyl-8-(napht-halen-2-ylmethylene)decahydro-1H-6,11b-(epoxymethano)-6a,9-methanocyclohepta[a]naphthalen-7(8H)-one] the IC50 (AGS; Homo sapiens, AGS) was 55 ± 4.43 µM, the IC50 (MGC803; Homo sapiens, MGC-803) was 21 ± 1.24 µM and the IC50 (Hela; Homo sapiens, HeLa) was 26 ± 1.48 µM. For the same compound, the IC50 (A549; Homo sapiens, A549) was 12.6 ± 1.39 µM, the IC50 (HCT116; Homo sapiens, HCT-116, 48 h) was 17.5 ± 1.44 µM and the IC50 (Bel7402; Homo sapiens, Bel-7402) was 51.2 ± 5.43 µM.
In the case of `C/C1=C\[C@H]2OC(=O)/C(=C/c3ccc(Cl)cc3)[C@@H]2CC/C(C)=C/CC1` [Compound 3], the IC50 (A549 cells; A549 cells) is listed as 15.7 µM.
In the case of `O=c1[nH]cc(F)c(=O)[nH]1` [Compound 5-FU, 5-Fluorouracil, reference compound], the IC50 (AGS; Homo sapiens, AGS) is reported as 29.6 ± 3.4 µM, the IC50 (MGC803; Homo sapiens, MGC-803) is reported as 30.5 ± 4.42 µM and the IC50 (Hela; Homo sapiens, HeLa) is reported as 34.6 ± 3.14 µM. For the same compound, the IC50 (A549; Homo sapiens, A549) was 23.7 ± 3.14 µM, the IC50 (HCT116; Homo sapiens, HCT-116, 48 h) was 24.8 ± 2.08 µM and the IC50 (Bel7402; Homo sapiens, Bel-7402) was 21.3 ± 2.43 µM.
In the case of `CCOc1cccc2c1OC(C(=O)/C=C/c1ccc(N(C)C)cc1)C2` (stereo not drawn) [Compound 5], the IC50 (A549 cells; A549) is given as 9 µM.
For `C=C1C(=O)O[C@@H]2/C=C(\C)CC/C=C(\C)CC[C@@H]12` [Costunolide], the IC50 (A549 cells; A549 cells) is given as 39.8 µM.
Compound “(1S,4aR,5S,6S,6aR,9S,11aS,14R,E)-8-(4-(((Z)-3,6-dimethylhepta-2,5-dien1yl)oxy)benzylidene)-1,5,6,14-tetrahydroxy-4,4-dimethyldecahydro-1H-6,11b-(epoxymethano)-6a,9-methanocyclohepta[a]naphthalen-7(8H)-one [Compound 2r]” has an IC50 (AGS) of 13.7 ± 2.63 µM, an IC50 (MGC803) of 6.86 ± 1.24 µM and an IC50 (Hela) of 9.85 ± 2.03 µM. The IC50 (A549) was 4.16 ± 0.45 µM, the IC50 (HCT116) was 2.39 ± 0.19 µM and the IC50 (Bel7402) was 8.45 ± 1.32 µM.
